One may read the IC50 as the midpoint of a concentration-inhibition curve.

EGFR, sequence (P00533 25-1210): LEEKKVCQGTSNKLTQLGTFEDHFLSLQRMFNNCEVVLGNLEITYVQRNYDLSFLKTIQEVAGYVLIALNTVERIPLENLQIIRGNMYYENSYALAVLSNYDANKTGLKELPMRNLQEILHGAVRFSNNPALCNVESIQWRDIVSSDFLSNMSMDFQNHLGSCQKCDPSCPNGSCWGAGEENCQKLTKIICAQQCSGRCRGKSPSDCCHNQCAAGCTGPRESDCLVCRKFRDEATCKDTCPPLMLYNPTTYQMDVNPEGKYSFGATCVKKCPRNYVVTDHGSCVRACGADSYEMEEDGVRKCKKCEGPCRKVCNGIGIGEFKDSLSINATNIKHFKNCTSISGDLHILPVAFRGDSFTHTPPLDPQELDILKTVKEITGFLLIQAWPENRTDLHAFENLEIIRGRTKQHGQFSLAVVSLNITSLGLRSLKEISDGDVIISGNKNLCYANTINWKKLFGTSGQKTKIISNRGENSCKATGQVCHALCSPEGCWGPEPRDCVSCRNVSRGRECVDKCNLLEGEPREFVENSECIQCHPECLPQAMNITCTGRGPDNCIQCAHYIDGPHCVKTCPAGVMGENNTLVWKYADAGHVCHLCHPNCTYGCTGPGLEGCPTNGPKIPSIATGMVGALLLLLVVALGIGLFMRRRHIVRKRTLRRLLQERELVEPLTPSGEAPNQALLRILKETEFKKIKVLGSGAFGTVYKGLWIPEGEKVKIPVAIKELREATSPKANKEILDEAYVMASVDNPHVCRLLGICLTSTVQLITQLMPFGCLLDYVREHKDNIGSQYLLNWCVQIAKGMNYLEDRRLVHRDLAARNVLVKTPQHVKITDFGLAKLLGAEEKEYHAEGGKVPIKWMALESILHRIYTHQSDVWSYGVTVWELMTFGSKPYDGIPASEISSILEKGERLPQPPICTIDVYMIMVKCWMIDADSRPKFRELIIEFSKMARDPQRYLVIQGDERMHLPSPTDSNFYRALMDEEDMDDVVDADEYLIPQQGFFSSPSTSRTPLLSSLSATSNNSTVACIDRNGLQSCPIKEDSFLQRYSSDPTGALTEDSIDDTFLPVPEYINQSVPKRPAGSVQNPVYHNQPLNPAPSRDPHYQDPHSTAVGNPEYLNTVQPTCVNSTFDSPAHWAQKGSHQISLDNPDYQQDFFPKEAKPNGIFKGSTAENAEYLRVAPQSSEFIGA

For the assay, the target named is EGFR (Homo sapiens, UniProt P00533). Briefly: Biochemical EGFR assay (ELISA, A431 cell lysate). On the set-up: A431 cell lysate (Screening Lab, SUGEN, Inc.); host or cells: A431. To be noted: read-out: bio EGFr IC50. The method, boiled down:
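EGFR captured from A431 cell lysate onto anti-EGFR-coated plates, then incubated with test compound for 30 min at room temperature. Tyrosine phosphorylation with ATP/MnCl2 was stopped with EDTA after 5 min and detected by anti-phosphotyrosine ELISA with peroxidase/ABTS read-out.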
On the technique in general: ELISA stands for enzyme-linked immunosorbent assay.
For `COc1ccc(C=C2C(=O)Nc3cc(NC(C)=O)ccc32)cc1-c1cccc(NC(C)=O)c1` (mixture of isomers) [Example 63, N-[3-(3′-Acetylamino-6-methoxybiphenyl-3-ylmethylene)-2-oxo-2,3-dihydro-1H-indol-6-yl]-acetamide], the IC50 was greater than 100 µM. Regarding `CC1(C)CCc2cc(C=C3C(=O)Nc4ccc(Br)cc43)ccc2O1` (racemic) [Example 34, 5-Bromo-3-(2,2-dimethylchroman-6-ylmethylene)-1,3-dihydroindol-2-one], the IC50 is greater than 100 µM.

On to `CNS(=O)(=O)c1ccc2c(c1)C(=Cc1[nH]c3ccccc3c1C)C(=O)N2` (racemic) [Example 154, 3-(3-Methyl-1H-indol-2-ylmethylene)-2-oxo-2,3-dihydro-1H-indole-5-sulfonic acid methylamide], for which the IC50 is greater than 100 µM. On to `COc1c(C(C)C)cc(/C=C2/C(=O)Nc3cc(O)ccc32)cc1C(C)C` [Example 4, 3-(3,5-Diisopropyl-4-methoxybenzylidene)-6-hydroxy-1,3-dihydroindol-2-one], for which the IC50 was greater than 100 µM.

As to `COc1c(C(C)C)cc(/C=C2/C(=O)Nc3ccc(C(C)=O)cc32)cc1C(C)C` [Example 5, 5-Acetyl-3-(3,5-diisopropyl-4-methoxybenzylidene)-1,3dihydroindol-2-one], the IC50 is greater than 100 µM. The figure for `COC(=O)c1ccc2c(c1)/C(=C\c1cc(C(C)C)c(OC)c(C(C)C)c1)C(=O)N2` [Example 6, 3-(3,5-Diisopropyl-4-methoxybenzylidene)-2-oxo-2,3-dihydro-1H-indole-5-carboxylic acid methyl ester] is greater than 100 µM; for `COc1ccc(/C=C2/C(=O)Nc3ccccc32)cc1C(C)C` [Example 7, 3-(3-Isopropyl-4-methoxybenzylidene)-1,3-dihydroindol-2-one] it is greater than 100 µM. The figure for `COc1cc(C)c(C=C2C(=O)Nc3ccccc32)cc1C(C)C` [Example 8, 3-(5-Isopropyl-4-methoxy-2-methylbenzylidene)-1,3-dihydroindol-2-one] is greater than 100 µM; for `COc1cc(C)c(C=C2C(=O)Nc3ccc(Cl)cc32)cc1C(C)C` [Example 9, 5-Chloro-3-(5-isopropyl-4-methoxy-2-methylbenzylidene)-1,3-dihydroindol-2-one] it is greater than 100 µM.

For `COc1ccc(/C=C2/C(=O)Nc3ccccc32)cc1C1CCCC1` [Example 10, 3-(3-Cyclopentyl-4-methoxybenzylidene)-1,3-dihydroindol-2-one], the IC50 is greater than 100 µM. For the compound `COc1ccc(/C=C2/C(=O)Nc3ccc(F)cc32)cc1C1CCCC1` [Example 11, 3-(3-Cyclopentyl-4-methoxybenzylidene)-5-fluoro-1,3-dihydroindol-2-one], the IC50 is greater than 100 µM. As for `COc1ccc(/C=C2/C(=O)Nc3ccccc32)cc1C1CCCCC1` [Example 12, 3-(3-Cyclohexyl-4-methoxybenzylidene)-1,3-dihydroindol-2-one], the IC50 is greater than 100 µM. The value for `COc1ccc(/C=C2/C(=O)Nc3ccc(Br)cc32)cc1-c1ccccc1` [Example 13, 5-Bromo-3-(6-methoxybiphenyl-3-ylmethylene)-1,3-dihydroindol-2-one] was greater than 100 µM; that for `O=C1Nc2ccc(Cl)cc2/C1=C\c1ccc2c(c1)CCO2` [Example 14, 5-Chloro-3-(2,3-dihydro-benzofuran-5-ylmethylene)-1,3-dihydroindol-2-one] was greater than 100 µM. `CC1(C)CCc2cc(/C=C3/C(=O)Nc4ccc(Cl)cc43)ccc2O1` [Example 15, 5-Chloro-3-(2,2-dimethyl-chroman-6-ylmethylene)-1,3-dihydroindol-2-one]: the half-maximal inhibitory concentration (IC50) is greater than 100 µM. The figure for `CC(=O)Nc1ccc2c(c1)NC(=O)/C2=C/c1ccc(OCCN2CCOCC2)c(C2CCCCC2)c1` [Example 16, N-{3-[3-Cyclohexyl-4-(2-morpholin-4-ylethoxy)-benzylidene]-2-oxo-2,3-dihydro-1H-indol-6-yl}-acetamide] is greater than 100 µM; for `COc1ccc2c(c1)/C(=C\c1cc(C(C)C)c(OC)c(C(C)C)c1)C(=O)N2` [Example 17, 3-(3,5-Diisopropyl-4-methoxybenzylidene)-5-methoxy-1,3-dihydroindol-2-one] it is greater than 100 µM; for `COc1ccc(/C=C2/C(=O)Nc3cc(NC(C)=O)ccc32)cc1-c1ccsc1` [Example 18, N-[3-(4-Methoxy-3-thiophene-3-ylbenzylidene)-2-oxo-2,3-dihydro-1H-indol-6-yl]-acetamide] it is greater than 100 µM. The figure for `COc1c(C(C)C)cc(/C=C2/C(=O)Nc3ccc(C)cc32)cc1C(C)C` [Example 19, 3-(3,5-Diisopropyl-4-methoxybenzylidene)-5-methyl-1,3-dihydroindol-2-one] is greater than 100 µM. The value for `COc1c(C(C)C)cc(/C=C2/C(=O)Nc3ccc(N)cc32)cc1C(C)C` [Example 20, 5-Amino-3-(3,5-diisopropyl-4-methoxy-benzylidene)-1,3-dihydroindol-2-one] was greater than 100 µM; that for `COc1c(C)cc(/C=C2/C(=O)Nc3ccc(Cl)cc32)cc1C` [Example 21, 5-Chloro-3-(4-methoxy-3,5-dimethylbenzylidene)-1,3-dihydroindol-2-one] was greater than 100 µM; that for `COc1c(C(C)C)cc(/C=C2/C(=O)Nc3cc(F)ccc32)cc1C(C)C` [Example 22, 3-(3,5-Diisopropyl-4-methoxybenzylidene)-6-fluoro-1,3-dihydroindol-2-one] was greater than 100 µM. Turning to `CC1(C)CCc2cc(/C=C3/C(=O)Nc4ccc(F)cc43)ccc2O1` [Example 23, 3-(2,2-Dimethylchroman-6-ylmethylene)-5-fluoro-1,3-dihydroindol-2-one], the IC50 was greater than 100 µM. The value for `CC(C)c1cc(/C=C2/C(=O)Nc3ccc(Cl)cc32)cc(C(C)C)c1OCCN1CCOCC1` [Example 24, 5-chloro-3-[3,5-diisopropyl-4-(2-morpholin-4-ylethoxy)-benzylidene]-1,3-dihydroindol-2-one] was greater than 100 µM.

`COc1ccc(/C=C2/C(=O)Nc3ccc(CCN4CCOCC4)cc32)cc1-c1ccsc1` [Example 26, 3-(4-Methoxy-3-thiophen-3-ylbenzylidene)-5-(2-morpholin-4-yl-ethyl)-1,3-dihydroindol-2-one]: the half-inhibitory concentration (IC50) is greater than 100 µM. Take `COc1cc(C)c(C=C2C(=O)Nc3cc(NC(C)=O)ccc32)cc1C(C)C` [Example 27, N-[3-(5-Isopropyl-4-methoxy-2-methyl-benzylidene)-2-oxo-2,3-dihydro-1H-indol-6-yl]-acetamide]: the IC50 is greater than 100 µM. The figure for `CCc1ccc2c(c1)/C(=C\c1cc(C(C)C)c(OC)c(C(C)C)c1)C(=O)N2` [Example 28, 3-(3,5-Diisopropyl-4-methoxbenzylidene)-5-ethyl-1,3-dihydroindol-2-one] is greater than 100 µM; for `COc1ccc(C=C2C(=O)Nc3ccccc32)cc1-c1cccc(NC(C)=O)c1` [Example 29, N-[2′-Methoxy-5′-(2-oxo-1,2-dihydroindol-3-ylidenemethyl)-biphenyl-3-yl]-acetamide] it is greater than 100 µM; for `COc1cc(C)c(/C=C2/C(=O)Nc3ccc(F)cc32)cc1C(C)C` [Example 30, 5-Fluoro-3-(5-isopropyl-4-methoxy-2-methyl-benzylidene)-1,3-dihydroindol-2-one] it is greater than 100 µM. The figure for `COc1ccc(/C=C2/C(=O)Nc3cc(NC(C)=O)ccc32)cc1-c1cccs1` [Example 31, N-[3-(4-Methoxy-3-thiophen-2-ylbenzylidene)-2-oxo-2,3-dihydro-1H-indol-6-yl]-acetamide] is greater than 100 µM; for `COc1c(C(C)C)cc(/C=C2/C(=O)Nc3cc(N)ccc32)cc1C(C)C` [Example 32, 6-Amino-3-(3,5-diisoprotyl-4-methoxy-benzylidene)-1,3-dihydroindol-2-one] it is greater than 100 µM.

In the case of `CC(=O)Nc1ccc2c(c1)NC(=O)/C2=C\c1ccc2c(c1)CCC(C)(C)O2` [Example 33, N-[3-(2,2-Dimethylchroman-6-ylmethylene)-2-oxo-2,3-dihydro-1H-indol-6-yl]-acetamide], the IC50 is greater than 100 µM. As for `COc1ccc(/C=C2/C(=O)Nc3ccccc32)cc1-c1ccsc1` [Example 35, 3-(4-Methoxy-3-thiophen-3-ylbenzylidene)-1,3-dihydroindol-2-one], the IC50 was greater than 100 µM. The figure for `COc1cc(C)c(/C=C2/C(=O)Nc3ccc(Br)cc32)cc1C(C)C` [Example 36, 5-Bromo-3-(5-isopropyl-4-methoxy-2-methyl-benzylidene)-1,3-dihydroindol-2-one] is greater than 100 µM; for `COc1ccc(/C=C2/C(=O)Nc3ccc(F)cc32)cc1-c1ccccc1` [Example 37, 5-Fluoro-3-(6-methoxybiphenyl-3-ylmethylene)-1,3-dihydroindol-2-one] it is greater than 100 µM. Turning to `COc1ccc(/C=C2\C(=O)Nc3cccc(C)c32)cc1C(C)C` [Example 38, 3-(3-Isopropyl-4-methoxybenzylidene)-4-methyl-1,3-dihydroindol-2-one], the IC50 was greater than 100 µM. The figure for `COc1cc(/C=C2/C(=O)Nc3ccccc32)c(-c2cccs2)cc1OC` [Example 39, 3-(4,5-Dimethoxy-2-thiophen-2-ylbenzylidene)-1,3-dihydroindol-2-one] is greater than 100 µM. Turning to `CC(=O)Nc1ccc2c(c1)NC(=O)/C2=C/c1ccc(OCCN2CCOCC2)c(-c2cccs2)c1` [Example 40, N-{3-[4-(2-Morpholin-4-ylethoxy)-3-thiophen-2-ylbenzylidene]-2-oxo-2,3-dihydro-1H-indol-6-yl}-acetamide], the IC50 was greater than 100 µM. The value for `Cc1cccc2c1/C(=C/c1ccc3c(c1)CCC(C)(C)O3)C(=O)N2` [Example 41, 3-(2,2-Dimethylchroman-6-ylmethylene)-4-methyl-1,3-dihydroindol-2-one] was greater than 100 µM; that for `O=C1Nc2ccc(F)cc2/C1=C\c1ccc2c(c1)CCO2` [Example 42, 3-(2,3-Dihydrobenzofuran-5-ylmethylene)-5-fluoro-1,3-dihydroindol-2-one] was greater than 100 µM.

For the origin of these results see US6855730B2, “3-methylidenyl-2-indolinone modulators of protein kinase” (Sugen, Inc., priority 1998, dated 2005).
